{"source": "paper PMC9474773", "about": "“PARP targeted Auger emitter therapy with [^125I]PARPi-01 for triple-negative breast cancer” (EJNMMI Research, 2022)", "test_system": "subcutaneous MDA-MB-231 models", "assay": "Endogenous therapy study (CT-based tumour growth, survival, [18F]FDG PET)", "type": "in vivo, NOD/SCID mice", "method": "Female NOD/SCID mice at 5–6 weeks of age (Janvier, France) was used for developing subcutaneous TNBC tumour. Animals were housed in 20–24 °C in a 12 h day light cycle. For each mouse, 3 × 10^6 MDA-MB-231 cells were suspended in a 1:1 (volume) mixture of Culture media: Matrigel® matrix (Corning®, Product No: 356237). Mice were inoculated with this cell suspension (max 200 µl) subcutaneously in the right flank. Tumour growth was monitored daily using calliper measurements. Tumour volume was calculated daily according to the formula Tumourvolume=TumourLength×Tumourbreadth^2×0.52\nUpon reaching of a tumour volume of 500 mm^3, animals were proceeded for experiments. For biodistribution study animals were administered with [^123I]PARPi-01 (n = 3). For therapy studies animals were randomized for control (n = 10) or [^125I]PARPi-01 administration (n = 10). Randomisation was done based on equivalent distribution of tumour volumes. In addition to the daily calliper measurements image analysis of CT based tumour volumes was blinded to avoid bias. Animals were sacrificed upon completion of biodistribution study or upon reaching a humane end point for the therapy study. Humane end point is determined as reaching of either of the following conditions: 15 mm tumour diameter, 1500 mm^3 tumour volume, or development of ulcers/ascites.\nMice were administered intravenously via lateral tail vain with Saline (0.9% NaCl) or [^125I]PARPi-01 (8.15 ± 2.9 MBq/dose) in four doses at 10-day intervals. The tumour volume was measured using [^18F]FDG based PET/CT (Trifoil, USA) once per week. [^18F]FDG (2.3 ± 0.4 MBq, AAA, Düsseldorf, Germany) was intraperitoneally administered and scanned 30 min later. Upon reaching 520 mm^3 tumour volume, one additional CT imaging per week (Trifoil, USA) apart from the PET/CT was performed for monitoring tumour growth.\nAfter injection with [^18F]FDG, the mice were placed on the scanner bed and the CT scan was initiated. The exposure settings used were as follows: 130 uA, 75 kVp, 230 ms exposure time, and 360° rotation with 512 views; the duration of the CT scans was ~ 5 min. A dynamic 30 min PET scan was initiated at the end of the CT scan. […] During the scans, the isoflurane concentration was adapted to achieve a respiratory rate between 75–50 breaths per minute. Mice were maintained at 1% Isoflurane and heated at 37 °C from anaesthesia induction to the end of imaging. The CT images were reconstructed using a Feldkamp filtered back projection reconstruction process to a voxel size of 0.154 × 0.154 × 0.154 mm in a 592 × 592 × 560 matrix. Using vendor software, the CT values were converted into Hounsfield units (HU) using the following formula HU=1000×μt-μw÷μw where µw is the linear attenuation coefficient of the water and µt is the linear attenuation coefficient of the tissue. The PET data were reconstructed using a 3D ordered-subset expectation maximization (i.e., OSEM-3D with three iterations and eight subsets) with a maximum a posteriori probability algorithm (30 iterations) into a 240 × 240 × 192 image matrix (resulting in final voxel dimensions of 0.25 × 0.25 × 0.597 mm). PET normalization, CT attenuation correction, and CT scatter correction were applied to all PET reconstructions. The PET images were automatically aligned to the CT using a custom-made transformation in PMOD software package from a capillary phantom.\nAll statistical analyses were performed using the Graph-Pad Prism software (Version 9.1.1). Biodistribution data is expressed as mean ± standard deviation. Kaplan–Meier Survival curve was analysed using survival analysis (Log rank Mantel-Cox test). The data points of the normalized tumour volume as a function of the time of the groups (Control, ^125I-PARPi, Control—excluded ulcers, ^125I-PARPi—excluded ulcers) were subjected to nonlinear regression analysis using the exponential growth formula Y = Y0*exp(k*x) (Malthusian). Accordingly, the doubling time is equal to ln(2)/k. […]", "data": [{"smiles": "O=C(c1ccc([125I])cc1)N1CCN(C(=O)c2cc(Cc3n[nH]c(=O)c4ccccc34)ccc2F)CC1", "note": "[[^125I]PARPi-01]", "values": [{"measurement": "radiotoxicity in liver and thyroid", "setting": "4 doses, 10 MBq/dose", "result": "No radiotoxicity was detected"}, {"measurement": "tumour doubling time", "setting": "CT-based, excluding animals sacrificed for ulcers/ascites, n = 5", "result": 15.07, "unit": "days"}, {"measurement": "tumour doubling time", "setting": "CT-image-based, 4 doses 10 days apart, all animals n = 10", "result": 14.2, "unit": "days"}, {"measurement": "median survival", "setting": "all animals n = 10, not significant vs control (P = 0.2505)", "result": 36, "unit": "days"}, {"measurement": "median survival time", "setting": "excluding animals sacrificed for ulcers/ascites", "result": 38}, {"measurement": "[18F]FDG PET SUV values and tumour metabolic volumes, therapy vs control", "setting": "mouse, in vivo", "result": "did not show significant difference"}]}]}
